Assay results taken from PubChem BioAssay (NCI).
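In this assay, cells in 96-well plates receive the compound at five concentrations for 48 hours. Endpoints are linearly interpolated between the surrounding concentrations. TGI is the concentration that stops growth completely.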

Experiments:
Assay in all cases: growth of human tumour cells (NCI), 48 h
SF-268 CNS = test system: SF-268 CNS
UACC-257 melanoma = test system: UACC-257 melanoma
SF-539 CNS = test system: SF-539 CNS
HOP-92 NSCLC = test system: HOP-92 NSCLC
KM12 colon = test system: KM12 colon
RPMI-8226 leukemia = test system: RPMI-8226 leukemia
SK-OV-3 ovarian = test system: SK-OV-3 ovarian
SNB-19 CNS = test system: SNB-19 CNS
ACHN renal = test system: ACHN renal
HS 578T breast = test system: HS 578T breast
MDA-MB-231 breast = test system: MDA-MB-231 breast
SK-MEL-28 melanoma = test system: SK-MEL-28 melanoma
NCI-H226 lung = test system: NCI-H226 lung
SR leukemia = test system: SR leukemia
OVCAR-8 ovarian = test system: OVCAR-8 ovarian
NCI-H23 lung = test system: NCI-H23 lung
MOLT-4 leukemia = test system: MOLT-4 leukemia
OVCAR-5 ovarian = test system: OVCAR-5 ovarian
OVCAR-4 ovarian = test system: OVCAR-4 ovarian
LOX IMVI melanoma = test system: LOX IMVI melanoma
786-0 renal = test system: 786-0 renal
DU-145 prostate = test system: DU-145 prostate
MDA-MB-435 = test system: MDA-MB-435
SF-295 CNS = test system: SF-295 CNS
NCI-H522 lung = test system: NCI-H522 lung
PC-3 prostate = test system: PC-3 prostate
A498 renal = test system: A498 renal
MDA-N = test system: MDA-N
RXF 393 renal = test system: RXF 393 renal
MCF7 breast = test system: MCF7 breast
CCRF-CEM leukemia = test system: CCRF-CEM leukemia
OVCAR-3 ovarian = test system: OVCAR-3 ovarian
TK-10 renal = test system: TK-10 renal
COLO 205 colon = test system: COLO 205 colon
NCI-H460 lung = test system: NCI-H460 lung
HCC-2998 colon = test system: HCC-2998 colon
HCT-116 colon = test system: HCT-116 colon
EKVX NSCLC = test system: EKVX NSCLC
T-47D breast = test system: T-47D breast
HOP-62 NSCLC = test system: HOP-62 NSCLC
K-562 leukemia = test system: K-562 leukemia
HT29 colon = test system: HT29 colon
UACC-62 melanoma = test system: UACC-62 melanoma
SW-620 colon = test system: SW-620 colon
CAKI-1 renal = test system: CAKI-1 renal
HCT-15 colon = test system: HCT-15 colon
SN12C renal = test system: SN12C renal
IGROV1 ovarian = test system: IGROV1 ovarian
U251 CNS = test system: U251 CNS
NCI/ADR-RES ovarian = test system: NCI/ADR-RES ovarian
HL-60(TB) leukemia = test system: HL-60(TB) leukemia
MALME-3M melanoma = test system: MALME-3M melanoma
SK-MEL-5 melanoma = test system: SK-MEL-5 melanoma
UO-31 renal = test system: UO-31 renal
BT-549 breast = test system: BT-549 breast
SK-MEL-2 melanoma = test system: SK-MEL-2 melanoma
SNB-75 CNS = test system: SNB-75 CNS
A549 NSCLC = test system: A549 NSCLC
M14 melanoma = test system: M14 melanoma

COc1c(C(=O)O)cccc1-c1cccc(C(=O)NCCN(CCNC(=O)c2cccc(-c3cccc(C(=O)O)c3OC)c2OC)CCNC(=O)c2cccc(-c3cccc(C(=O)O)c3OC)c2OC)c1OC
TGI (SF-268 CNS): > 100 µM | TGI (UACC-257 melanoma): > 100 µM | TGI (SF-539 CNS): > 100 µM | TGI (HOP-92 NSCLC): > 100 µM | TGI (KM12 colon): > 100 µM | TGI (RPMI-8226 leukemia): 65.2 µM | TGI (SK-OV-3 ovarian): > 100 µM | TGI (SNB-19 CNS): > 100 µM | TGI (ACHN renal): > 100 µM | TGI (HS 578T breast): 81.1 µM | TGI (MDA-MB-231 breast): > 100 µM | TGI (SK-MEL-28 melanoma): > 100 µM | TGI (NCI-H226 lung): > 100 µM | TGI (SR leukemia): 44.1 µM | TGI (OVCAR-8 ovarian): > 100 µM | TGI (NCI-H23 lung): > 100 µM | TGI (MOLT-4 leukemia): > 100 µM | TGI (OVCAR-5 ovarian): > 100 µM | TGI (OVCAR-4 ovarian): > 100 µM | TGI (LOX IMVI melanoma): > 100 µM | TGI (786-0 renal): > 100 µM | TGI (DU-145 prostate): > 100 µM | TGI (MDA-MB-435): 34.3 µM | TGI (SF-295 CNS): > 100 µM | TGI (NCI-H522 lung): 75.8 µM | TGI (PC-3 prostate): > 100 µM | TGI (A498 renal): 96.2 µM | TGI (MDA-N): 23.8 µM | TGI (RXF 393 renal): > 100 µM | TGI (MCF7 breast): > 100 µM | TGI (CCRF-CEM leukemia): > 100000 nM | TGI (OVCAR-3 ovarian): 64.6 µM | TGI (TK-10 renal): > 100 µM | TGI (COLO 205 colon): 62.9 µM | TGI (NCI-H460 lung): > 100 µM | TGI (HCC-2998 colon): 79 µM | TGI (HCT-116 colon): > 100 µM | TGI (EKVX NSCLC): > 100 µM | TGI (T-47D breast): > 100 µM | TGI (HOP-62 NSCLC): > 100 µM | TGI (K-562 leukemia): > 100 µM | TGI (HT29 colon): > 100 µM | TGI (UACC-62 melanoma): 89.7 µM | TGI (SW-620 colon): > 100 µM | TGI (CAKI-1 renal): > 100 µM | TGI (HCT-15 colon): > 100 µM | TGI (SN12C renal): 89.9 µM | TGI (IGROV1 ovarian): > 100 µM | TGI (U251 CNS): > 100 µM | TGI (NCI/ADR-RES ovarian): > 100 µM | TGI (HL-60(TB) leukemia): 65.4 µM | TGI (MALME-3M melanoma): 88.1 µM | TGI (SK-MEL-5 melanoma): 37.6 µM | TGI (UO-31 renal): > 100 µM | TGI (BT-549 breast): > 100 µM | TGI (SK-MEL-2 melanoma): > 100 µM | TGI (SNB-75 CNS): > 100 µM | TGI (A549 NSCLC): > 100 µM

Nc1ccn(C2OC(COP(=O)(O)O)C(O)C2O)c(=O)n1 (configuration not stated)
TGI (SF-268 CNS): > 100 µM | TGI (UACC-257 melanoma): > 100 µM | TGI (SF-539 CNS): > 30.2 µM | TGI (HOP-92 NSCLC): > 100 µM | TGI (KM12 colon): > 100 µM | TGI (RPMI-8226 leukemia): > 100 µM | TGI (SK-OV-3 ovarian): > 100 µM | TGI (SNB-19 CNS): > 100 µM | TGI (ACHN renal): > 41.4 µM | TGI (HS 578T breast): > 100 µM | TGI (MDA-MB-231 breast): > 100 µM | TGI (SK-MEL-28 melanoma): > 100 µM | TGI (NCI-H226 lung): > 100 µM | TGI (SR leukemia): > 44.7 µM | TGI (OVCAR-8 ovarian): > 100 µM | TGI (NCI-H23 lung): > 100 µM | TGI (MOLT-4 leukemia): 13.2 µM | TGI (OVCAR-5 ovarian): > 100 µM | TGI (OVCAR-4 ovarian): > 100 µM | TGI (LOX IMVI melanoma): > 100 µM | TGI (M14 melanoma): > 44.9 µM | TGI (786-0 renal): > 100 µM | TGI (DU-145 prostate): > 25.2 µM | TGI (MDA-MB-435): > 100 µM | TGI (SF-295 CNS): > 100 µM | TGI (NCI-H522 lung): > 100 µM | TGI (PC-3 prostate): > 100 µM | TGI (A498 renal): > 100 µM | TGI (MDA-N): > 100 µM | TGI (RXF 393 renal): > 94.7 µM | TGI (MCF7 breast): > 100 µM | TGI (CCRF-CEM leukemia): 74.2 nM | TGI (OVCAR-3 ovarian): > 100 µM | TGI (TK-10 renal): > 100 µM | TGI (COLO 205 colon): > 100 µM | TGI (NCI-H460 lung): > 27.8 µM | TGI (HCC-2998 colon): > 100 µM | TGI (HCT-116 colon): > 100 µM | TGI (EKVX NSCLC): > 100 µM | TGI (T-47D breast): > 100 µM | TGI (HOP-62 NSCLC): > 100 µM | TGI (K-562 leukemia): > 100 µM | TGI (HT29 colon): > 100 µM | TGI (UACC-62 melanoma): > 71.3 µM | TGI (SW-620 colon): > 100 µM | TGI (CAKI-1 renal): > 100 µM | TGI (HCT-15 colon): > 100 µM | TGI (SN12C renal): > 100 µM | TGI (IGROV1 ovarian): > 100 µM | TGI (U251 CNS): > 100 µM | TGI (NCI/ADR-RES ovarian): > 100 µM | TGI (HL-60(TB) leukemia): 6.48 µM | TGI (MALME-3M melanoma): > 100 µM | TGI (SK-MEL-5 melanoma): > 100 µM | TGI (UO-31 renal): > 100 µM | TGI (BT-549 breast): > 100 µM | TGI (SK-MEL-2 melanoma): > 100 µM | TGI (SNB-75 CNS): > 100 µM | TGI (A549 NSCLC): > 100 µM
